Experimental data as given in publication PMC10139132, “Immobilization of M3 Muscarinic Receptor to Rapidly Analyze Drug—Protein Interactions and Bioactive Components in a Natural Plant” (International Journal of Molecular Sciences, 2023).
Where a name gives a salt, the structure may show the parent alone.

Assays:
[1] = test system: immobilized M3R; assay: Specificity of the M3R-immobilized column (retention times of ligands); format: binding
[2] = test system: immobilized M3R; assay: Identification of M3R-binding bioactive compounds in Daturae Flos extract on M3R-immobilized column with HPLC-MS; details: retained peak 2 of Daturae Flos extract, identified by HPLC-MS/MS
Description: The heating under reflux method was used to make the anhydrous extract of […]. In brief, 10 g of dried DF was soaked in 100 mL of water for 0.5 h, boiled for 2 × 1 h, filtered, and concentrated to 10 mL via rotary evaporation at 60 °C under reduced pressure. A solution of 95% ethanol was applied to carry out alcohol sedimentation to reduce the alcohol content of the concentrated extract to 75%. The liquid supernatant was concentrated at 60 °C to obtain an herbal solution of 1.0 g/mL.
The M3R-immobilized column was utilized to analyze the active components in the DF extract with an Agilent 1100 chromatographic system. The mobile phase was 5 mM ammonium acetate buffer, the flow rate was 0.3 mL/min, the sample volume was 10 μL, and the detection wavelength was 254 nm. […] It was further analyzed using high performance liquid chromatography (HPLC)–mass spectrometry (MS).
An Eclipse XDB-C18 column (2.1 × 150 mm, 3.5 μm) was employed for chromatographic analysis with a 0.1% formic acid solution and methanol (40:60, v/v) as the mobile phase, a flow rate of 0.3 mL/min, and a column temperature of 30 °C. The MS analysis was carried out in both negative and positive modes with a scan range of 100–2000 amu, a nebulizing gas pressure of 30 psi, a flow rate of 8.0 L/min, and a dry gas temperature of […], respectively.

[3] = test system: M3 muscarinic receptor (M3R); format: binding
[4] = target: muscarinic M3 receptor; details: cited from earlier work
[5] = test system: M3 muscarinic receptor (M3R); format: binding; details: immobilized M3R column; flow rates 0.4-3.6 mL/min
[6] = phosphate buffer 20 mM pH 7.4, flow rate 0.2 mL/min, injection 10 μL

CCCCC(=O)N(Cc1ccc(-c2ccccc2-c2nnn[nH]2)cc1)[C@H](C(=O)O)C(C)C [Valsartan]
specific binding on the M3R-immobilized column ([1]; judged from retention time vs system void time): no specific binding occurred
retention time on the M3R-immobilized column [1, 6]: 2.3 min

CN1[C@@H]2C[C@@H](OC(=O)[C@H](CO)c3ccccc3)C[C@H]1[C@@H]1O[C@@H]12 [scopolamine]
binding to M3R of compounds from the DF extract [2]: bind to M3R

CN1[C@@H]2CC[C@H]1C[C@@H](OC(=O)[C@H](CO)c1ccccc1)C2 [Hyoscyamine, hyoscyamine]
binding to M3R of compounds from the DF extract [2]: bind to M3R

CN1[C@@H]2CC(OC(=O)[C@H](CO)c3ccccc3)C[C@H]1[C@@H]1O[C@@H]12.Cl (single isomer, unassigned; (-)) [(−)-Scopolamine hydrochloride]
KA by Frontal Analysis (association constant) [3]: (2.39 ± 0.03) × 10^4 M^−1
kd by the Radioligand Binding Assay [4]: 0.31 ± 0.03 min⁻¹

O=N[O-].[Na+] [sodium nitrite, Sodium nitrite]
retention time on the M3R-immobilized column ([1]; pH 7.4): 1.1 min

CC[C@@H]1C(=O)OC[C@@H]1Cc1cncn1C [Pilocarpine]
retention time on the M3R-immobilized column [1, 6]: 5.4 min

CN1[C@@H]2CC[C@H]1C[C@@H](OC(=O)C(CO)c1ccccc1)C2 (stereo partly shown) [Atropine sulfate, atropine sulfate]
KA by Frontal Analysis (association constant) [3]: (3.71 ± 0.03) × 10^4 M^−1
kd by the Peak Profiling Method (dissociation rate constant) [5]: 14.28 ± 0.17 min⁻¹
